Among the data in ChEMBL document CHEMBL1144431, “6-Hydroxy-1,2,3,4-tetrahydro-isoquinoline-3-carboxylic acid mimics active conformation of tyrosine in opioid peptides” (Bioorg Med Chem Lett, 2005) are Ki values, retold here.

In one assay the target is Mu-type opioid receptor (Rattus norvegicus, UniProt P33535). As to the kind of experiment: Inhibition of [3H]naloxone binding to rat brain homogenate Opioid receptor mu.
For assay [1], the target named is Delta-type opioid receptor (Rattus norvegicus, UniProt P33533). As to the kind of experiment: Inhibition of [3H]naloxone binding to rat brain homogenate Opioid receptor delta.

Residues, ends and D or L forms follow the SMILES beside them.

Sequence of Delta-type opioid receptor (P33533 whole entry): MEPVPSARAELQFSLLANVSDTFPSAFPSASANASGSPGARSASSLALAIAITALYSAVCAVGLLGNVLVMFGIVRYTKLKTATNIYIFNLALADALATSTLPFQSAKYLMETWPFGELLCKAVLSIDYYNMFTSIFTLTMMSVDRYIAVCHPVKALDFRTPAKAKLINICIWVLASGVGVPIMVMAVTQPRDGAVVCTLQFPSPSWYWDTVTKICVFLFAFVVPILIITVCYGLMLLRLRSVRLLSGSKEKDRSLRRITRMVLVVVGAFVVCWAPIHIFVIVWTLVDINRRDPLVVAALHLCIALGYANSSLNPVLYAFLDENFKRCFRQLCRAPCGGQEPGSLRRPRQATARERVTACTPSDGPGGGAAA
Sequence of Mu-type opioid receptor (P33535 whole entry): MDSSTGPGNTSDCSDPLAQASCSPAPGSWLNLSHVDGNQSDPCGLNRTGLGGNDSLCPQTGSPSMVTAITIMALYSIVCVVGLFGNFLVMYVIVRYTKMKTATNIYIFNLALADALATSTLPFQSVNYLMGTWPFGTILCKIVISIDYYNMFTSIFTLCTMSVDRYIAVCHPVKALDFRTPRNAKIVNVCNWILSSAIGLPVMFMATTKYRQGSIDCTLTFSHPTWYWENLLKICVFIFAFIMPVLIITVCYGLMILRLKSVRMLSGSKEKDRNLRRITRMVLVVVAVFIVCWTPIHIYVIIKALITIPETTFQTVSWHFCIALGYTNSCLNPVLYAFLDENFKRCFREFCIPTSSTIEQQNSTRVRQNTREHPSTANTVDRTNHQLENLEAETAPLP

The term Ki denotes a dissociation constant, usually derived from enzyme kinetics or from competition with a known ligand. Lower therefore signals tighter binding. As to `C[C@@H](NC(=O)[C@@H]1Cc2cc(O)ccc2CN1)C(=O)N[C@@H](Cc1ccccc1)C(=O)NCC(=O)N[C@@H](Cc1ccc(O)cc1)C(=O)N1CCC[C@H]1C(=O)N[C@@H](CO)C(N)=O`, the values for the inhibitory constant (Ki) (at Mu-type opioid receptor; in assay [1]) were 253 nM and above 10000 nM, respectively.
Take `C[C@@H](NC(=O)[C@@H]1Cc2ccc(O)cc2CN1)C(=O)N[C@@H](Cc1ccccc1)C(=O)NCC(=O)N[C@@H](Cc1ccc(O)cc1)C(=O)N1CCC[C@H]1C(=O)N[C@@H](CO)C(N)=O`: the Ki at Mu-type opioid receptor was 1620 nM; in assay [1], above 10000 nM.
For the compound `C[C@@H](NC(=O)[C@@H](N)Cc1ccc(O)cc1)C(=O)N[C@@H](Cc1ccccc1)C(=O)N[C@@H](Cc1ccccc1)C(N)=O` (HELM PEPTIDE1{Y.[dA].F.F.[am]}$$$$V2.0), in assay [1], affinity was put at a Ki of 1820 nM. This lies in the single-digit micromolar range.
As to `CC(C)[C@H](NC(=O)[C@H](CC(=O)O)NC(=O)[C@H](Cc1ccccc1)NC(=O)[C@@H](C)NC(=O)[C@@H](N)Cc1ccc(O)cc1)C(=O)N[C@H](C(=O)NCC(N)=O)C(C)C` [DELTORPHIN C], the Ki on Mu-type opioid receptor was determined as 1700 nM; in assay [1], 0.73 nM.
As for `C[C@@H](NC(=O)[C@@H]1Cc2cc(O)ccc2CN1)C(=O)N[C@@H](Cc1ccccc1)C(=O)N[C@@H](Cc1ccccc1)C(N)=O`, the Ki on Mu-type opioid receptor is 57.8 nM; in assay [1], above 10000 nM.
Turning to `CC(C)[C@H](NC(=O)[C@H](CC(=O)O)NC(=O)[C@H](Cc1ccccc1)NC(=O)[C@@H](C)NC(=O)[C@@H]1Cc2cc(O)ccc2CN1)C(=O)N[C@H](C(=O)NCC(N)=O)C(C)C`, the Ki at Mu-type opioid receptor was above 10000 nM; in assay [1], 10.4 nM.
With `CC(C)[C@H](NC(=O)[C@H](CC(=O)O)NC(=O)[C@H](Cc1ccccc1)NC(=O)[C@@H](C)NC(=O)[C@@H]1Cc2ccc(O)cc2CN1)C(=O)N[C@H](C(=O)NCC(N)=O)C(C)C`, the values for the Ki (at Mu-type opioid receptor; in assay [1]) were above 10000 nM and 304 nM, respectively.
For `NC(=O)[C@H](Cc1ccccc1)NC(=O)[C@H](Cc1ccccc1)NC(=O)[C@@H]1CCCN1C(=O)[C@@H]1Cc2cc(O)ccc2CN1`, the inhibition constant Ki on Mu-type opioid receptor is 216 nM; in assay [1] it was above 10000 nM.
Compound `C[C@@H](NC(=O)[C@@H](N)Cc1ccc(O)cc1)C(=O)N[C@@H](Cc1ccccc1)C(=O)NCC(=O)N[C@@H](Cc1ccc(O)cc1)C(=O)N1CCC[C@H]1C(=O)N[C@@H](CO)C(N)=O` [DERMORPHIN] had a Ki on Mu-type opioid receptor of 2.4 nM.
